CN(Cc1ccccc1)CN1C(=O)C(=NNC(=O)c2ccccc2OCc2ccccc2)c2ccccc21
Conditions	solubility (mole fraction)
in PEG-400, 298.15 K	0.007
in PEG-400, 303.15 K	0.00778
in PEG-400, 308.15 K	0.00883
in PEG-400, 313.15 K	0.00988
in PEG-400, 318.15 K	0.0113

in water
Conditions	solubility (mole fraction)
298.15 K	1.07e-06
303.15 K	1.48e-06
308.15 K	1.89e-06
313.15 K	2.39e-06
318.15 K	2.97e-06

Source: BigSolDB 2.1
